In PubChem BioAssay (NCI):
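Step 1: Grow cells in 96-well plates. Step 2: Expose to compound for 48 hours at 5 concentrations. Step 3: Interpolate endpoints linearly; if unreached, use highest concentration. The concentration for full growth arrest is given as TGI.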

What was measured:
Experiment in all cases: NCI tumour cell line growth inhibition, 48 h
[1] = test system: 786-0 renal
[2] = test system: A498 renal
[3] = test system: A549 NSCLC
[4] = test system: ACHN renal
[5] = test system: CAKI-1 renal
[6] = test system: CCRF-CEM leukemia
[7] = test system: COLO 205 colon
[8] = test system: DLD-1 colon
[9] = test system: DMS 114 small cell lung
[10] = test system: DMS 273 small cell lung
[11] = test system: HCC-2998 colon
[12] = test system: HCT-116 colon
[13] = test system: HCT-15 colon
[14] = test system: HL-60(TB) leukemia
[15] = test system: HOP-18 NSCLC
[16] = test system: HOP-62 NSCLC
[17] = test system: HOP-92 NSCLC
[18] = test system: HT29 colon
[19] = test system: IGROV1 ovarian
[20] = test system: K-562 leukemia
[21] = test system: KM12 colon
[22] = test system: LOX IMVI melanoma
[23] = test system: LXFL 529 NSCLC
[24] = test system: M14 melanoma
[25] = test system: M19-MEL melanoma
[26] = test system: MALME-3M melanoma
[27] = test system: MOLT-4 leukemia
[28] = test system: NCI-H226 lung
[29] = test system: NCI-H460 lung
[30] = test system: NCI-H522 lung
[31] = test system: OVCAR-4 ovarian
[32] = test system: OVCAR-5 ovarian
[33] = test system: OVCAR-8 ovarian
[34] = test system: RPMI-8226 leukemia
[35] = test system: RXF 393 renal
[36] = test system: SF-268 CNS
[37] = test system: SF-295 CNS
[38] = test system: SF-539 CNS
[39] = test system: SK-MEL-2 melanoma
[40] = test system: SK-MEL-5 melanoma
[41] = test system: SK-OV-3 ovarian
[42] = test system: SN12C renal
[43] = test system: SNB-75 CNS
[44] = test system: SNB-78 CNS
[45] = test system: SR leukemia
[46] = test system: SW-620 colon
[47] = test system: TK-10 renal
[48] = test system: U251 CNS
[49] = test system: UACC-257 melanoma
[50] = test system: UACC-62 melanoma
[51] = test system: UO-31 renal
[52] = test system: BT-549 breast
[53] = test system: DU-145 prostate
[54] = test system: EKVX NSCLC
[55] = test system: HS 578T breast
[56] = test system: MCF7 breast
[57] = test system: MDA-MB-231 breast
[58] = test system: MDA-MB-435
[59] = test system: MDA-N
[60] = test system: NCI-H23 lung
[61] = test system: NCI/ADR-RES ovarian
[62] = test system: OVCAR-3 ovarian
[63] = test system: PC-3 prostate
[64] = test system: SK-MEL-28 melanoma
[65] = test system: SNB-19 CNS
[66] = test system: T-47D breast

With `CC(=O)Nc1c(C)ccc2c1C(=O)c1ccccc1C2=O` the TGI [1] was > 100 µM, the TGI [2] was > 100 µM and the TGI [3] was > 100 µM. For the same compound, the TGI [4] was > 100 µM, the TGI [5] was > 100 µM and the TGI [6] was > 100 µM. The TGI [7] was > 100 µM, the TGI [8] was > 100 µM and the TGI [9] was > 100 µM. For the same compound, the TGI [10] was > 100 µM, the TGI [11] was > 100 µM and the TGI [12] was > 100 µM. The TGI [13] was > 100 µM, the TGI [14] was > 100 µM and the TGI [15] was > 100 µM. For the same compound, the TGI [16] was > 100 µM, the TGI [17] was > 100 µM and the TGI [18] was > 100 µM. For the same compound, the TGI [19] was > 100 µM, the TGI [20] was > 100 µM and the TGI [21] was > 100 µM. For the same compound, the TGI [22] was > 100 µM, the TGI [23] was > 100 µM and the TGI [24] was > 100 µM. For the same compound, the TGI [25] was > 100 µM, the TGI [26] was > 100 µM and the TGI [27] was > 100 µM. The TGI [28] was > 100 µM, the TGI [29] was > 100 µM and the TGI [30] was > 100 µM. The TGI [31] was > 100 µM, the TGI [32] was > 100 µM and the TGI [33] was > 100 µM. For the same compound, the TGI [34] was > 100 µM, the TGI [35] was > 100 µM and the TGI [36] was > 100 µM. The TGI [37] was > 100 µM, the TGI [38] was > 100 µM and the TGI [39] was > 100 µM. For the same compound, the TGI [40] was > 100 µM, the TGI [41] was > 100 µM and the TGI [42] was > 100 µM. The TGI [43] was > 100 µM, the TGI [44] was > 100 µM and the TGI [45] was > 100 µM. For the same compound, the TGI [46] was > 100 µM, the TGI [47] was > 100 µM and the TGI [48] was > 100 µM. For the same compound, the TGI [49] was > 100 µM, the TGI [50] was > 100 µM and the TGI [51] was > 100 µM.
`Cc1occc1C(=S)Nc1ccc(Cl)c(/C=N/OC(C)C)c1` showed a TGI [1] of 43.8 µM, a TGI [2] of 49.9 µM and a TGI [3] of 54.2 µM. The TGI [4] was 51 µM, the TGI [52] was 36.5 µM and the TGI [5] was 40.9 µM. The TGI [6] was 44.4 µM, the TGI [7] was 37 µM and the TGI [53] was > 54.2 µM. For the same compound, the TGI [54] was 59 µM, the TGI [11] was > 59.6 µM and the TGI [12] was > 51.7 µM. For the same compound, the TGI [13] was 42.8 µM, the TGI [14] was 69.8 µM and the TGI [16] was > 60.9 µM. For the same compound, the TGI [17] was 37.4 µM, the TGI [55] was 67.9 µM and the TGI [18] was 45 µM. For the same compound, the TGI [19] was > 57.2 µM, the TGI [20] was > 100 µM and the TGI [21] was 53.6 µM. For the same compound, the TGI [22] was 31.1 µM, the TGI [24] was 57.9 µM and the TGI [26] was > 57.4 µM. The TGI [56] was > 51.6 µM, the TGI [57] was 32.6 µM and the TGI [58] was 31 µM. For the same compound, the TGI [59] was 45 µM, the TGI [27] was > 57.6 µM and the TGI [28] was 37.6 µM. The TGI [60] was 52.3 µM, the TGI [29] was > 57.5 µM and the TGI [30] was 28.5 µM. The TGI [61] was > 58 µM, the TGI [62] was 30.9 µM and the TGI [31] was > 59.7 µM. For the same compound, the TGI [32] was 49.4 µM, the TGI [33] was > 55.4 µM and the TGI [63] was 47.3 µM. For the same compound, the TGI [34] was > 67.6 µM, the TGI [35] was 56.4 µM and the TGI [36] was > 62.2 µM. It also gave a TGI [37] of 41.9 µM, a TGI [38] of 32.9 µM and a TGI [39] of 43.8 µM. For the same compound, the TGI [64] was > 56.4 µM, the TGI [40] was 41.4 µM and the TGI [41] was > 56.7 µM. For the same compound, the TGI [42] was 35.1 µM, the TGI [65] was > 67.4 µM and the TGI [43] was 72.7 µM. For the same compound, the TGI [45] was > 59.9 µM, the TGI [46] was 52.3 µM and the TGI [66] was > 41.6 µM. For the same compound, the TGI [47] was 55.8 µM, the TGI [48] was > 53.7 µM and the TGI [49] was 47.6 µM. For the same compound, the TGI [50] was 29.2 µM and the TGI [51] was 42.8 µM.
In the case of `C=CCC(C(=O)O)c1ccccc1` (centres undefined), the TGI [1] is reported as > 100 µM, the TGI [2] is reported as > 100 µM and the TGI [3] is reported as > 100 µM. For the same compound, the TGI [4] was > 100 µM, the TGI [52] was > 100 µM and the TGI [5] was > 100 µM. For the same compound, the TGI [6] was > 100 µM, the TGI [7] was > 100 µM and the TGI [53] was > 100 µM. The TGI [54] was > 100 µM, the TGI [11] was > 100 µM and the TGI [12] was > 100 µM. The TGI [13] was > 100 µM, the TGI [14] was > 100 µM and the TGI [16] was > 100 µM. For the same compound, the TGI [17] was > 100 µM, the TGI [55] was > 100 µM and the TGI [18] was > 100 µM. The TGI [19] was > 100 µM, the TGI [20] was > 100 µM and the TGI [21] was > 100 µM. For the same compound, the TGI [22] was > 100 µM, the TGI [24] was > 100 µM and the TGI [26] was > 100 µM. The TGI [56] was > 100 µM, the TGI [57] was > 100 µM and the TGI [58] was > 100 µM. The TGI [59] was > 100 µM, the TGI [27] was > 100 µM and the TGI [28] was > 100 µM. The TGI [60] was > 100 µM, the TGI [29] was > 100 µM and the TGI [30] was > 100 µM. For the same compound, the TGI [61] was > 100 µM, the TGI [62] was > 100 µM and the TGI [31] was > 100 µM. The TGI [32] was > 100 µM, the TGI [33] was > 100 µM and the TGI [63] was > 100 µM. For the same compound, the TGI [34] was > 100 µM, the TGI [35] was > 100 µM and the TGI [36] was > 100 µM. The TGI [37] was > 100 µM, the TGI [38] was > 100 µM and the TGI [39] was > 100 µM. For the same compound, the TGI [64] was > 100 µM, the TGI [40] was > 100 µM and the TGI [41] was > 100 µM. The TGI [42] was > 100 µM, the TGI [65] was > 100 µM and the TGI [43] was > 100 µM. The TGI [45] was > 100 µM, the TGI [46] was > 100 µM and the TGI [66] was > 100 µM. The TGI [47] was > 100 µM, the TGI [48] was > 100 µM and the TGI [49] was > 100 µM. The TGI [50] was > 100 µM and the TGI [51] was > 100 µM.
